# Data taken from patent US20240115875A1, “Systems, Methods, and Substances for Controlled Endoluminal Energy Application” (Dream Big Biotechnologies B.V., priority 2021, published 2024).
# Experiments:
# [1] = In-vivo porcine model, heart rate and blood pressure during photosensitizer infusion; design: species or system Sus scrofa domesticus; conditions: for changes in blood pressure or heart rate during the injection: 5% i.v. dextrose drip
# Protocol: The preclinical experiments in pigs required some precautions.
# […] […] The animal gradually recovered after 10 to 20 min and stabilized to normal heart rates.
# [2] = system: porcine pancreas and target vessels (splenic, hepatic, superior mesenteric artery)
# Protocol: Five large white porcine (Sus scrofa domesticus), weighing between 25-43 kg, were used as animal model, because the anatomy of the porcine pancreas and its vasculature closely resembles that of the human. Animals were handled according to the European Directive 2010/63 and French laws concerning animal protection in laboratories.
# Following the intravascular procedure, porcine recovered from anesthesia and were housed for a survival period of 24 hours up to one week. After the survival period the sedation protocol above was repeated and general anesthesia was induced using intravenous (18 G Intravenous catheter in-ear vein) propofol 3 mg/kg, followed by orotracheal intubation and maintained with rocuronium 0.8 mg/kg along with inhaled isoflurane 2%. At the end of the experiment, animals were euthanized with an intravenous injection of pentobarbital 40 mg/kg IV (Exagon ND, Axience).
# To counteract possible effects of BPD-MA on the porcine blood pressure, the antihistamine dexchlorpheniramine was given the days before and immediately prior to the start of photosensitizer infusion. Polaramine® was administered at 2 mg p.o. BID to TID the day before and Polaramine® 5 mg IV (slow bolus) 30 to 60 minutes before photosensitizer injection. Methylprednisolone SoluMedrol®120 (3 mg kg-1) was administered also IV (slow bolus) 30 to 60 minutes before photosensitizer injection. […]
# To visualize the pancreas and its target vessels for treatment planning, non-enhanced and contrast-enhanced CT scans were carried out shortly before treatment, in the early arterial and early portal venous phase. […] A 3D vascular roadmap was obtained via software manipulation (syngo.via, Siemens Healthineers AG, Germany) and the position, morphology and dimensions of the target vessels were assessed and used for later co-localization during the angiography-guided procedure and placement of a suitably sized PDT light source, being a prototype irradiating balloon catheter. […]
# tumor tissue [3] = test: Estimated PDT threshold doses for several photosensitizers (photodynamic threshold model); conditions: in tumor, from uptake and molar weight
# Protocol: In these simulations, we assumed intravenous administration of a light-absorbing drug and the placement of a light emitter in the endovascular system at the site of tumor encroachment around it. Light absorbed by the photosensitizer was assumed to result in the local creation of short-lived cytotoxic radicals, causing cell death e.g. hemorrhagic tissue necrosis and apoptosis. To quantify the attainable effects, light-dose escalation studies were performed using Monte Carlo light propagation simulations (FullMonteCUDA) (“High-performance, robustly verified Monte Carlo simulation with FullMonte,” J. Biomed. Opt. 23(8), 085001 (2018)). The use of the photosensitizer BPD-MA mediated PDT was initially investigated in a simple “cube and tube” geometry representing the pancreas and a vessel traversing its center. The multilayered tube represented the vascular wall layers, intima, media and adventitia having an air-filled balloon with a linear line source in the center. […] Simulation properties were assigned as described above and PDT activation energies were escalated over the range of 10-100 J cm^−1 diffuser length, and the anticipated threshold dose in mJ·cm^−3 and radii of necrosis were estimated based on the photodynamic threshold model introduced by Patterson M, Wilson B C, Graff R: In vivo test of the concept of photodynamic threshold dose in normal rat liver photosensitized by aluminum chlorosulfunated phthalocyanine. Photochem Photobiol, 51(3): 343-349, 1990.
# The pancreatic model is shown in FIG. 7A comprising a 4×4×5 cm cube, one half is assigned with optical properties of normal pancreatic tissue and the other half with those of cancerous pancreatic tissues. Running through the cube's center is a blood vessel made up of three layers, intima, media, adventitia, with assigned properties from the literature for aortic tissues. An initial dose-escalation simulation investigated if an adequate fluence [J·cm^−2] can be delivered through the vessel wall to create a surgically sufficiently large circumferential necrotic margin (mm) surrounding the vessel, based on the photosensitizer accumulation and the sensitizer's molar extinction coefficient. The vessel's inner diameter and wall thickness were set to 7.0 mm and 1.30 mm, respectively. The energy emitting source was cylindrical in shape with a length of 20 mm and the irradiance at the intima surface was fixed at 200 mW·cm^−2. The exposure times escalated to deliver 10 to 100 J total energy. An example of the absorbed energy density as a function of radius from the vessel center is shown in FIG. 7B, with an estimated necrotic margin ranging from […]. The subsequent necrotic clearing of viable tumor tissue from the adventitia is predicted based on the threshold model for common photosensitizers, see Tables 1 and 2.
# [4] = system: porcine pancreas, splenic vein and artery; test: In-vivo dose escalation in healthy porcine, endovascular balloon-catheter PDT, 48h CT and histopathology
# Protocol: The performance of Monte Carlo simulations determined that the photosensitizer verteporfin appears to be a suitable photosensitizer and that perivascular necrosis can occur when irradiating at relevant light dose ranges in a clinically acceptable time range of several minutes. In-vivo experiments were carried out in healthy porcine (n=7) delivering light irradiation from an endovascular balloon-catheter laser probe.
# The irradiating balloon catheter was placed in the splenic vein (crosshair) and an increasingly large hypodense margin, interpreted as PDT induced necrosis, can be observed for increasing doses.
# In FIG. 12A, the pancreas can be observed with the splenic vein, artery, and the approximate location of the irradiating balloon catheter. Radially extending into the pancreas is a circumferential margin of necrosis (dotted line and arrows, circa 10 mm).
# tumor tissue [5] = conditions: input of the simulation, cited from earlier work; for Tumor uptake: assumed tissue uptake; for Molar extinction coefficient ϵ: at the wavelength given with each photosensitizer (630-690 nm)
compound,measurement,setting,value
benzoporphyrin derivative monoacid ring A [Verteporfin],changes in heart rate during injection,"[1]; first porcine, i.v. saline drip, without pre-medications, injection stopped at 0.2 mg kg^−1","Immediate changes occurred in the heart rate, decreasing to a degree that adrenaline was administered to stabilize the animal"
same,changes in blood pressure or heart rate during the injection,"[1]; porcine 2-3, pre-medicated excluding heparin, 0.4 mg·kg^−1",No changes occurred in blood pressure or heart rate during the injection
same,changes in blood pressure or heart rate during the injection,"[1]; porcine 4-5, pre-medicated including heparin, 1.6 mg·kg^−1",No changes occurred in blood pressure or heart rate during the injection
same,"hypodense area around the target vessel on contrast-enhanced CT, extending outwards from the outer wall of the vessel (possible PDT-induced necrosis)","[2]; 0.4-1.6 mg·kg^−1 i.v., 690 nm, 150 mW·cm^−2, 75-225 J·cm^−2, CT 24 h to one week",2-6 mm
same,splenic arterial wall histopathology,[2]; in vivo,"endothelial loss and necrotic cellular tissues were observed, but the extracellular matrix containing collagen and elastin was preserved in some cases"
same,vessel structural integrity on contrast-enhanced CT,[2]; in vivo,"no perforations, ruptures, and bleedings were observed"
same,Photosensitizer concentration,tumor tissue [3],3.3 · 10^−5 M
same,radius of apparent perivascular circumferential tissue necrosis,"[4]; 0.4-3.2 mg/kg, light irradiation 8-25 minutes, 48h contrast-enhanced CT and histopathology, n=7",2-15 mm
same,artery and vein wall histopathology,"[4]; L-size dose 1.6 mg/kg, 48h post PDT",intact vessel unruptured walls albeit with atrophic muscular cells and ulcerated endothelial cells
same,"circumferential margin of necrosis extending into the pancreas, histopathology","[4]; L-size dose 1.6 mg/kg, 48h post PDT, H&E and EVG",circa 10 mm
same,Tumor uptake,tumor tissue [5],23.9 mg/g
same,Molar extinction coefficient ϵ,tumor tissue [5],"33,000 M^−1 cm^−1"
c1ccc2c(c1)-c1nc-2nc2[nH]c(nc3nc(nc4[nH]c(n1)c1ccccc41)-c1ccccc1-3)c1ccccc21 [Phthalocyanine],Photosensitizer concentration,tumor tissue [3],2.3 · 10^−5 M
same,Tumor uptake,tumor tissue [5],12.3 mg/g
Photofrin,Photosensitizer concentration,tumor tissue [3],6.8 · 10^−6 M
same,Tumor uptake,tumor tissue [5],8.1 mg/g
same,Molar extinction coefficient ϵ,tumor tissue [5],"1,170 M^−1 cm^−1"
"Oc1cccc(-c2c3nc(c(-c4cccc(O)c4)c4ccc([nH]4)c(-c4cccc(O)c4)c4nc(c(-c5cccc(O)c5)c5ccc2[nH]5)CC4)C=C3)c1 [Temoporfin, 5,10,15,20-Tetra(m-hydroxyphenyl)chlorin]",Tumor uptake,tumor tissue [5],0.5 mg/g
C=Cc1c(C)c2cc3nc(c(CC(=O)N[C@@H](CC(=O)O)C(=O)O)c4[nH]c(cc5nc(cc1[nH]2)C(C)=C5CC)c(C)c4C(=O)O)[C@@H](CCC(=O)O)[C@@H]3C [Talaporfin],Photosensitizer concentration,tumor tissue [3],2.2 · 10^−6 M
same,Tumor uptake,tumor tissue [5],1.62 mg/g
same,Molar extinction coefficient ϵ,tumor tissue [5],"40,000 M^−1 cm^−1"
